Laboratory results from ChEMBL document CHEMBL1240428, “Conventional and microwave assisted synthesis of some new N-[(4-oxo-2-substituted aryl -1, 3-thiazolidine)-acetamidyl]-5-nitroindazoles and its antimicrobial activity” (2010).
Converted amounts (≈) assume the structure as drawn.

Legend:
[1] = tested on: Escherichia coli; assay: Antibacterial activity against Escherichia coli; assay type: functional
[2] = tested on: Bacillus subtilis; assay: Antibacterial activity against Bacillus subtilis at 100 ug/mL; assay type: functional; details: read-out: IZ
[3] = tested on: Aspergillus flavus; assay: Antifungal activity against Aspergillus flavus; assay type: functional
[4] = tested on: Penicillium citrinum; assay: Antifungal activity against Penicillium citrinum at 100 ug/mL; assay type: functional; details: read-out: IZ
[5] = tested on: Aspergillus flavus; assay: Antifungal activity against Aspergillus flavus at 50 ug/mL; assay type: functional; details: read-out: IZ
[6] = tested on: Penicillium citrinum; assay: Antifungal activity against Penicillium citrinum; assay type: functional
[7] = tested on: Escherichia coli; assay: Antibacterial activity against Escherichia coli at 50 ug/mL; assay type: functional; details: read-out: IZ
[8] = tested on: Bacillus subtilis; assay: Antibacterial activity against Bacillus subtilis; assay type: functional
[9] = tested on: Penicillium citrinum; assay: Antifungal activity against Penicillium citrinum at 50 ug/mL; assay type: functional; details: read-out: IZ
[10] = tested on: Fusarium oxysporum; assay: Antifungal activity against Fusarium oxysporum at 100 ug/mL; assay type: functional; details: read-out: IZ
[11] = tested on: Bacillus subtilis; assay: Antibacterial activity against Bacillus subtilis at 50 ug/mL; assay type: functional; details: read-out: IZ
[12] = tested on: Salmonella typhi; assay: Antibacterial activity against Salmonella typhi at 100 ug/mL; details: read-out: IZ
[13] = tested on: Salmonella typhi; assay: Antibacterial activity against Salmonella typhi
[14] = tested on: Escherichia coli; assay: Antibacterial activity against Escherichia coli at 100 ug/mL; assay type: functional; details: read-out: IZ
[15] = tested on: Aspergillus flavus; assay: Antifungal activity against Aspergillus flavus at 100 ug/mL; assay type: functional; details: read-out: IZ
[16] = tested on: Fusarium oxysporum; assay: Antifungal activity against Fusarium oxysporum at 50 ug/mL; assay type: functional; details: read-out: IZ
[17] = tested on: Fusarium oxysporum; assay: Antifungal activity against Fusarium oxysporum; assay type: functional
[18] = tested on: Salmonella typhi; assay: Antibacterial activity against Salmonella typhi at 50 ug/mL; details: read-out: IZ

| Structure (SMILES) | MIC [1] | MIC [3] | MIC [6] | MIC [8] | MIC [13] | MIC [17] | zone of inhibition at 100 µg/mL [2] | zone of inhibition at 100 µg/mL [4] | zone of inhibition at 50 µg/mL [5] | zone of inhibition at 50 µg/mL [7] | zone of inhibition at 50 µg/mL [9] | zone of inhibition at 100 µg/mL [10] | zone of inhibition at 50 µg/mL [11] | zone of inhibition at 100 µg/mL [12] | zone of inhibition at 100 µg/mL [14] | zone of inhibition at 100 µg/mL [15] | zone of inhibition at 50 µg/mL [16] | zone of inhibition at 50 µg/mL [18] |
| --- | --- | --- | --- | --- | --- | --- | --- | --- | --- | --- | --- | --- | --- | --- | --- | --- | --- | --- |
| O=C(Cn1ncc2cc([N+](=O)[O-])ccc21)N/N=C/c1cccc(Br)c1 | 18 µg/mL (≈ 44.8 µM) | 18 µg/mL (≈ 44.8 µM) | 25 µg/mL (≈ 62.2 µM) | 21 µg/mL (≈ 52.2 µM) | 18 µg/mL (≈ 44.8 µM) | 15 µg/mL (≈ 37.3 µM) | 18.3 mm | 19 mm | 17.8 mm | 17.4 mm | 14.5 mm | 20.7 mm | 15.1 mm | 20 mm | 20.1 mm | 20.9 mm | 18.8 mm | 15.9 mm |
| O=C(Cn1ncc2cc([N+](=O)[O-])ccc21)N/N=C/c1cccc([N+](=O)[O-])c1 | 15 µg/mL (≈ 40.7 µM) | 13 µg/mL (≈ 35.3 µM) | 18 µg/mL (≈ 48.9 µM) | 16 µg/mL (≈ 43.4 µM) | 15 µg/mL (≈ 40.7 µM) | 11 µg/mL (≈ 29.9 µM) | 21.9 mm | 23.8 mm | 22.5 mm | 20.9 mm | 19 mm | 25.4 mm | 18.7 mm | 23.6 mm | 23.5 mm | 24.9 mm | 22.9 mm | 20 mm |
| COc1ccc(/C=N/NC(=O)Cn2ncc3cc([N+](=O)[O-])ccc32)cc1 | 25 µg/mL (≈ 70.8 µM) | 22 µg/mL (≈ 62.3 µM) | 32 µg/mL (≈ 90.6 µM) | 38 µg/mL (≈ 108 µM) | 25 µg/mL (≈ 70.8 µM) | 18 µg/mL (≈ 50.9 µM) | 13.9 mm | 14 mm | 12.2 mm | 12.6 mm | 10 mm | 16.2 mm | 10 mm | 14.8 mm | 15 mm | 15.1 mm | 13.9 mm | 11 mm |
| Cc1ccc(/C=N/NC(=O)Cn2ncc3cc([N+](=O)[O-])ccc32)cc1 | 31 µg/mL (≈ 91.9 µM) | 30 µg/mL (≈ 88.9 µM) | 38 µg/mL (≈ 113 µM) | 42 µg/mL (≈ 125 µM) | 34 µg/mL (≈ 101 µM) | 25 µg/mL (≈ 74.1 µM) | 9 mm | 10 mm | 8 mm | 9 mm | 7.1 mm | 12.6 mm | 6 mm | 10 mm | 11 mm | 11 mm | 10.8 mm | 7 mm |
| CN(C)c1ccc(/C=N/NC(=O)Cn2ncc3cc([N+](=O)[O-])ccc32)cc1 | 30 µg/mL (≈ 81.9 µM) | 27 µg/mL (≈ 73.7 µM) | 36 µg/mL (≈ 98.3 µM) | 41 µg/mL (≈ 112 µM) | 32 µg/mL (≈ 87.3 µM) | 23 µg/mL (≈ 62.8 µM) | 11 mm | 11.5 mm | 9.5 mm | 10.6 mm | 8.2 mm | 13.8 mm | 7.5 mm | 12 mm | 12.5 mm | 12.4 mm | 11.4 mm | 8.6 mm |

Second part, led by results:

| MIC [1] | MIC [3] | MIC [6] | MIC [8] | MIC [13] | MIC [17] | Structure (SMILES) | zone of inhibition at 100 µg/mL [2] | zone of inhibition at 100 µg/mL [4] | zone of inhibition at 50 µg/mL [5] | zone of inhibition at 50 µg/mL [7] | zone of inhibition at 50 µg/mL [9] | zone of inhibition at 100 µg/mL [10] | zone of inhibition at 50 µg/mL [11] | zone of inhibition at 100 µg/mL [12] | zone of inhibition at 100 µg/mL [14] | zone of inhibition at 100 µg/mL [15] | zone of inhibition at 50 µg/mL [16] | zone of inhibition at 50 µg/mL [18] |
| --- | --- | --- | --- | --- | --- | --- | --- | --- | --- | --- | --- | --- | --- | --- | --- | --- | --- | --- |
| 15 µg/mL (≈ 40.7 µM) | 14 µg/mL (≈ 38 µM) | 20 µg/mL (≈ 54.3 µM) | 17 µg/mL (≈ 46.2 µM) | 15 µg/mL (≈ 40.7 µM) | 11 µg/mL (≈ 29.9 µM) | O=C(Cn1ncc2cc([N+](=O)[O-])ccc21)N/N=C/c1ccccc1[N+](=O)[O-] | 21 mm | 22.7 mm | 21.4 mm | 20 mm | 18 mm | 24.2 mm | 18 mm | 22.8 mm | 22.8 mm | 24 mm | 22 mm | 19 mm |
| 27 µg/mL (≈ 76.4 µM) | 23 µg/mL (≈ 65.1 µM) | 35 µg/mL (≈ 99.1 µM) | 38 µg/mL (≈ 108 µM) | 30 µg/mL (≈ 84.9 µM) | 20 µg/mL (≈ 56.6 µM) | COc1ccccc1/C=N/NC(=O)Cn1ncc2cc([N+](=O)[O-])ccc21 | 12.8 mm | 12.8 mm | 11 mm | 11.5 mm | 9.1 mm | 15.2 mm | 9 mm | 13.5 mm | 14 mm | 14 mm | 12.6 mm | 9.8 mm |
| 18 µg/mL (≈ 45.3 µM) | 19 µg/mL (≈ 47.8 µM) | 25 µg/mL (≈ 62.9 µM) | 23 µg/mL (≈ 57.9 µM) | 18 µg/mL (≈ 45.3 µM) | 15 µg/mL (≈ 37.7 µM) | O=C(Cn1ncc2cc([N+](=O)[O-])ccc21)NN1C(=O)CSC1c1ccccc1 (stereo not given) | 17.4 mm | 18.4 mm | 16 mm | 17.2 mm | 14.8 mm | 20 mm | 13.5 mm | 18.4 mm | 19.1 mm | 19 mm | 17.1 mm | 14.6 mm |
| 16 µg/mL (≈ 38.7 µM) | 18 µg/mL (≈ 43.5 µM) | 22 µg/mL (≈ 53.2 µM) | 21 µg/mL (≈ 50.8 µM) | 17 µg/mL (≈ 41.1 µM) | 15 µg/mL (≈ 36.3 µM) | O=C(Cn1ncc2cc([N+](=O)[O-])ccc21)NN1C(=O)CSC1c1ccccc1O (stereo not given) | 18.9 mm | 19.7 mm | 17.3 mm | 18.4 mm | 16 mm | 21.4 mm | 14.7 mm | 19.9 mm | 20.5 mm | 20.4 mm | 18.5 mm | 16 mm |
| 13 µg/mL (≈ 30.1 µM) | 14 µg/mL (≈ 32.4 µM) | 17 µg/mL (≈ 39.4 µM) | 17 µg/mL (≈ 39.4 µM) | 15 µg/mL (≈ 34.7 µM) | 11 µg/mL (≈ 25.5 µM) | O=C(Cn1ncc2cc([N+](=O)[O-])ccc21)NN1C(=O)CSC1c1ccccc1Cl (stereo not given) | 22.6 mm | 23.5 mm | 21.3 mm | 21.4 mm | 19.4 mm | 25 mm | 18 mm | 23 mm | 24.5 mm | 24 mm | 22 mm | 19.2 mm |
